The values below come from US7750036B2 (SB Pharmco Puerto Rico Inc., priority 2004, dated 2010).

The conditions of data set [1]: cited from earlier work.
Data set [2] in a line: physchem. Particulars: pH 7.1, aqueous buffer.

In brackets after ≈: the same amount, converted by molar mass. Like-named read-outs stand apart in the source and are kept apart here.

With `COc1ccccc1OCCNCC(O)COc1cccc2[nH]c3ccccc3c12` (racemic) [Carvedilol], the figures for the solubility in data set [1] (above a pH of 9.0) and in data set [2] were under 1 µg/mL and 20 to 30 µg/mL (≈ 49.2 to 73.8 µM), respectively. The saturation solubility entry in data set [1] (pH=5, room temperature) was “about 100 μg/mL”; in data set [1] (pH=7, room temperature), “about 23 μg/mL”.
As for `COc1ccccc1OCCNCC(O)COc1cccc2[nH]c3ccccc3c12.Cl` (centres unmarked) [hydrochloride salt of carvedilol], in data set [1] (acidic medium which simulates gastric fluid), the “solubility of salt generated in situ” value is given as “less soluble”.

The term solubility denotes how much of the substance goes into solution per volume.
